Test system: androgen receptor (AR)
Test: AR ELISA assay (androgen receptor degradation)
Assay type: cell-based
Settings: LNCaP and/or VCaP cells, 5 hours drug treatment; for AR Dmax: % degraded
Protocol: 5. AR ELISA Assay Protocol
Compounds were evaluated in this assay in LNCaP and/or VCaP cells utilizing similar protocols. The protocols used with VCaP cells are described below. The androgen receptor ELISA assay was performed using PathScan AR Sandwich ELISA (Cell Signaling Catalog #12850) according to the following assay steps:
VCaP cells were seeded at 40,000 cells/well at a volume of 100 µL/well in VCaP assay medium [Phenol red free RPMI (Gibco Cat #11835-030); 5% Charcoal Stripped (Dextran treated) FBS (Omega Scientific, Cat #FB-04); 1% penstrep (Life Technologies, Gibco Cat #: 10378-016)] in Corning 3904 plates. The cells were incubated for a minimum of 3 days. Cells were dosed with PROTACs diluted in 0.01% DMSO and the drug treatment was allowed for 5 hours.
AR ELISA (Cell Signaling) was performed as follows. 1×Cell Signaling Cell lysis buffer was made (Catalogue #9803; comes with the kit). Media from the treated wells is aspirated, and 100 μL 1×cell lysis buffer/well is added. The cells were placed on a shaker for 10 minutes at 4° C. Twenty microliters of lysate was transferred to 100 μl of Diluent in ELISA plate ([…]-0.075 μg/ml). The lysate-diluent mixture was shaken for 30 minutes at 37° C. Allow mouse AR antibody, anti-mouse antibody, TMB, and STOP solution to come to room temperature. The 1×ELISA buffer included in kit was made and loaded in the reservoir. Media from the plates was discarded, the ELISA plate tapped hard on paper towel, and washed 4×200 μl ELISA wash buffer using a plate washer.
One-hundred (100) μL/well of mouse AR detection Ab was added; the plates were covered and shaken at 37° C. for 1 hour; media was discarded from the plates, the plates were tapped on a paper towel, washed 4× with 200 μL ELISA wash buffer with a plate washer.
One-hundred (100) μL/well of anti-mouse—HRP conjugated Ab (comes with the kit) was added; the plates were covered and shaken at 37° C. for 30 minutes; the TMB reagent was allowed to come to room temperature; the media was discard from the plate, the plates were tapped on paper towel, washed 4× with 200 μL of ELISA wash buffer; the plates were tapped the plates on paper towel. One-hundred (100) μL of TMB was added and the plates shaken for 2 minutes—while watching for color development. One-hundred (100) μL Stop solution was added when light blue color developed. Plates were shaken and read at 450 nm.

Row | SMILES | AR Dmax | DC50
1 | Cn1c(-c2cccc(N3CCN(CC4CCN(c5ccc(C(=O)N[C@H]6C(C)(C)[C@H](Oc7ccc(C#N)c(Cl)c7)C6(C)C)cc5)CC4)CC3)c2)nn(C2CCC(=O)NC2=O)c1=O (mixture of isomers) [PROTAC-68, rac-N-((1r,3r)-3-(3-chloro-4-cyanophenoxy)-2,2,4,4-tetramethylcyclobutyl)-4-(4-((4-(3-(1-(2,6-dioxopiperidin-3-yl)-4-methyl-5-oxo-4,5-dihydro-1H-1,2,4-triazol-3-yl)phenyl)piperazin-1-yl)methyl)piperidin-1-yl)benzamide] | A (A > 75) | < 1 nM
2 | Cn1c(-c2ccc(OCCCCCN3CCN(c4ccc(C(=O)N[C@H]5C(C)(C)[C@H](Oc6ccc(C#N)c(Cl)c6)C5(C)C)cc4)CC3)cc2)nn(C2CCC(=O)NC2=O)c1=O (mixture of isomers) [PROTAC-69, rac-N-((1r,3r)-3-(3-chloro-4-cyanophenoxy)-2,2,4,4-tetramethylcyclobutyl)-4-(4-(5-(4-(1-(2,6-dioxopiperidin-3-yl)-4-methyl-5-oxo-4,5-dihydro-1H-1,2,4-triazol-3-yl)phenoxy)pentyl)piperazin-1-yl)benzamide] | B (50 < B <= 75) | < 1 nM
3 | CC1(C)[C@H](NC(=O)c2ccc(N3CCC(CN4CCC5(CC4)CC(=O)N(C4CCC(=O)NC4=O)C5=O)CC3)cc2)C(C)(C)[C@H]1Oc1ccc(C#N)c(Cl)c1 (mixture of isomers) [PROTAC-75, rac-N-((1r,3r)-3-(3-chloro-4-cyanophenoxy)-2,2,4,4-tetramethylcyclobutyl)-4-(4-((2-(2,6-dioxopiperidin-3-yl)-1,3-dioxo-2,8-diazaspiro[4.5]decan-8-yl)methyl)piperidin-1-yl)benzamide] | 6C (C <= 50) | ≥ 100 nM
4 | CC1(C)[C@H](NC(=O)c2ccc(CCCN3CCC4(CC3)CC(=O)N(C3CCC(=O)NC3=O)C4=O)cc2)C(C)(C)[C@H]1Oc1ccc(C#N)c(Cl)c1 (mixture of isomers) [PROTAC-76, rac-N-((1r,3r)-3-(3-chloro-4-cyanophenoxy)-2,2,4,4-tetramethylcyclobutyl)-4-(3-(2-(2,6-dioxopiperidin-3-yl)-1,3-dioxo-2,8-diazaspiro[4.5]decan-8-yl)propyl)benzamide] | C (C <= 50) | ≥ 100 nM
5 | CC1(C)[C@H](NC(=O)c2ccc(/C=C/CN3CCC4(CC3)CC(=O)N(C3CCC(=O)NC3=O)C4=O)cc2)C(C)(C)[C@H]1Oc1ccc(C#N)c(Cl)c1 (mixture of isomers) [PROTAC-77, rac-N-((1r,3r)-3-(3-chloro-4-cyanophenoxy)-2,2,4,4-tetramethylcyclobutyl)-4-((E)-3-(2-(2,6-dioxopiperidin-3-yl)-1,3-dioxo-2,8-diazaspiro[4.5]decan-8-yl)prop-1-en-1-yl)benzamide] | C (C <= 50) | ≥ 100 nM
6 | CC1(C)[C@H](NC(=O)c2ccc(CCCCN3CCC4(CC3)CC(=O)N(C3CCC(=O)NC3=O)C4=O)cc2)C(C)(C)[C@H]1Oc1ccc(C#N)c(Cl)c1 (mixture of isomers) [PROTAC-78, rac-N-((1r,3r)-3-(3-chloro-4-cyanophenoxy)-2,2,4,4-tetramethylcyclobutyl)-4-(4-(2-(2,6-dioxopiperidin-3-yl)-1,3-dioxo-2,8-diazaspiro[4.5]decan-8-yl)butyl)benzamide] | C (C <= 50) | ≥ 100 nM
7 | CC1(C)[C@H](NC(=O)c2ccc(N3CCN(CCCCCCOc4cnn(C5CCC(=O)NC5=O)c(=O)c4)CC3)nc2)C(C)(C)[C@H]1Oc1ccc(C#N)c(Cl)c1 (some centres unmarked) [PROTAC-29, N-((1r,3r)-3-(3-chloro-4-cyanophenoxy)-2,2,4,4-tetramethylcyclobutyl)-6-(4-(6-((1-(2,6-dioxopiperidin-3-yl)-6-oxo-1,6-dihydropyridazin-4-yl)oxy)hexyl)piperazin-1-yl)nicotinamide] | B (50 < B <= 75) | < 1 nM

Reference: US20250313547A1, “CEREBLON LIGANDS AND BIFUNCTIONAL COMPOUNDS COMPRISING THE SAME” (Arvinas Operations, Inc., priority 2017, published 2025)
